Measured values published in US8674109B2, “Pesticidal compositions” (Dow AgroSciences, LLC., priority 2009, dated 2014).

Experiments:
Assay type in all cases: in vivo
[1] = test system: beet armyworm (BAW; Spodoptera exigua: Lepidoptera); experiment: Insecticidal test for beet armyworm, 128-well diet tray assay
Procedure: Insecticidal Test for Beet Armyworm (Spodoptera exigua)
(§1) Bioassays on beet armyworm (BAW; Spodoptera exigua: Lepidoptera) were conducted using a 128-well diet tray assay. Three to five second instar BAW larvae were placed in each well (3 mL) of the diet tray that had been previously filled with 1 mL of artificial diet to which 50 μg/cm^2 of the test compound (dissolved in 50 μL of 90:10 acetone-water mixture) had been applied (to each of eight wells) and then allowed to dry. Trays were covered with a clear self-adhesive cover, and held at 25° C., 14:10 light-dark for six days. Percent mortality was recorded for the larvae in each well; activity in the eight wells was then averaged.

[2] = test system: green peach aphid (Myzus persicae); experiment: Insecticidal test for green peach aphid in foliar spray assay on cabbage seedlings
Procedure: Insecticidal Test for Green Peach Aphid (Myzus persicae) in Foliar Spray Assay
Cabbage seedlings grown in 3-inch pots, with 2-3 small (3-5 cm) true leaves, were used as test substrate. The seedlings were infested with 20-50 green peach aphids (wingless adult and nymph) one day prior to chemical application. Four pots with individual seedlings were used for each treatment. Compounds (2 mg) were dissolved in 2 mL of acetone/methanol (1:1) solvent, forming stock solutions of 1000 ppm. The stock solutions were diluted 5× with 0.025% Tween 20 in H2O to obtain the solution at 200 ppm. A hand-held Devilbiss sprayer was used for spraying a solution to both sides of cabbage leaves until runoff. Reference plants (solvent check) were sprayed with the diluent only. Treated plants were held in a holding room for three days at approximately 25° C. and 40% relative humidity (RH) prior to grading. Evaluation was conducted by counting the number of live aphids per plant under a microscope. Insecticidal activity was measured by using Abbott's correction formula are presented in Table 2: Corrected % Control=100*(X−Y)/X
where • X=No. of live aphids on solvent check plants • Y=No. of live aphids on treated plants

[3] = test system: corn earworm (CEW; Helicoverpa zea: Lepidoptera); experiment: Insecticidal test for corn earworm, 128-well diet tray assay
Procedure: Insecticidal Test for Corn Earworm (Helicoverpa zea)
as §1, with “corn earworm (CEW; Helicoverpa zea:” for “beet armyworm (BAW; Spodoptera exigua:”, “CEW” for “BAW”

| SMILES | % Mortality BAW 50 μg/cm^2 [1] | % Mortality GPA 200 ppm [2] | % Mortality CEW 50 μg/cm^2 [3] |
| --- | --- | --- | --- |
| CC(C)(OC(=O)Nc1ccc(-c2ncn(-c3ccc(OC(F)(F)F)cc3)n2)cc1)c1ccc(C(F)(F)F)cc1 [Compound 49] | A (50-100) | B (Less than 80) | A (50-100) |
| O=C(Nc1ccc(-c2ncn(-c3ccc(OC(F)(F)F)cc3)n2)cc1)OCc1ccc(C(F)(F)F)cc1 [Compound 50] | B (Less than 50) | B (Less than 80) | B (Less than 50) |
| CC(OC(=O)Nc1ccc(-c2ncn(-c3ccc(OC(F)(F)F)cc3)n2)cc1)c1ccc(C(F)(F)F)[n+]([O-])c1 (stereo not drawn) [Compound 51] | A (50-100) | B (Less than 80) | A (50-100) |
| C#CC(OC(=O)Nc1ccc(-c2ncn(-c3ccc(OC(F)(F)F)cc3)n2)cc1)c1ccc(Cl)nc1 (stereo not drawn) [Compound 52] | A (50-100) | B (Less than 80) | A (50-100) |
| C#CC(OC(=O)Nc1ccc(-c2ncn(-c3ccc(OC(F)(F)F)cc3)n2)cc1)c1ccc(C(F)(F)F)nc1 (stereo not drawn) [Compound 53] | A (50-100) | B (Less than 80) | A (50-100) |
| CC(OC(=O)Nc1ccc(-c2ncn(-c3ccc(OC(F)(F)F)cc3)n2)cc1)c1cnc(Cl)s1 (stereo not drawn) [Compound 54] | A (50-100) | B (Less than 80) | A (50-100) |
| COc1ccc(C(C)OC(=O)Nc2ccc(-c3ncn(-c4ccc(OC(F)(F)F)cc4)n3)cc2)cn1 (stereo not drawn) [Compound 55] | A (50-100) | B (Less than 80) | A (50-100) |
| CC(OC(=O)Nc1ccc(-c2ncn(-c3ccc(OC(F)(F)F)cc3)n2)cc1)c1ccc(Cl)nc1 (stereo not drawn) [Compound 56] | A (50-100) | B (Less than 80) | A (50-100) |
| CC(OC(=O)Nc1ccc(-c2ncn(-c3ccc(OC(F)(F)F)cc3)n2)cc1)c1cnc(C(F)(F)F)nc1 (stereo not drawn) [Compound 57] | A (50-100) | B (Less than 80) | A (50-100) |
| COCC(OC(=O)Nc1ccc(-c2ncn(-c3ccc(OC(F)(F)F)cc3)n2)cc1)c1ccccc1 (stereo not drawn) [Compound 58] | A (50-100) | B (Less than 80) | A (50-100) |
| CC(OC(=O)Nc1ccc(-c2ncn(-c3ccc(OC(F)(F)F)cc3)n2)cc1)c1ccccc1 (stereo not drawn) [Compound 59] | A (50-100) | B (Less than 80) | A (50-100) |
| CCC(OC(=O)Nc1ccc(-c2ncn(-c3ccc(OC(F)(F)F)cc3)n2)cc1)c1cccc(Br)c1 (stereo not drawn) [Compound 63] | A (50-100) | B (Less than 80) | A (50-100) |
| CC(OC(=O)Nc1ccc(-c2ncn(-c3ccc(OC(F)(F)F)cc3)n2)cc1)c1ccc(OC(F)(F)F)cc1 (stereo not drawn) [Compound 64] | A (50-100) | B (Less than 80) | A (50-100) |
| CCC(OC(=O)Nc1ccc(-c2ncn(-c3ccc(OC(F)(F)F)cc3)n2)cc1)c1cccc(Cl)c1 (stereo not drawn) [Compound 65] | A (50-100) | B (Less than 80) | A (50-100) |
| C#CC(OC(=O)Nc1ccc(-c2ncn(-c3ccc(OC(F)(F)F)cc3)n2)cc1)c1ccc(C(F)(F)F)cc1 (stereo not drawn) [Compound 66] | A (50-100) | B (Less than 80) | A (50-100) |
| CCC(OC(=O)Nc1ccc(-c2ncn(-c3ccc(OC(F)(F)F)cc3)n2)cc1)c1ccc(C(F)(F)F)cc1 (stereo not drawn) [Compound 67] | A (50-100) | B (Less than 80) | A (50-100) |
| CC(OC(=O)Nc1ccc(-c2ncn(-c3ccc(OC(F)(F)F)cc3)n2)cc1)c1cccc(C(F)(F)F)c1 (stereo not drawn) [Compound 68] | A (50-100) | B (Less than 80) | A (50-100) |
| CC(OC(=O)Nc1ccc(-c2ncn(-c3ccc(OC(F)(F)F)cc3)n2)cc1)c1ccccc1C(F)(F)F (stereo not drawn) [Compound 69] | A (50-100) | B (Less than 80) | A (50-100) |
| C=CC(OC(=O)Nc1ccc(-c2ncn(-c3ccc(OC(F)(F)F)cc3)n2)cc1)c1ccccc1 (stereo not drawn) [Compound 70] | A (50-100) | B (Less than 80) | A (50-100) |
| CCCCC(OC(=O)Nc1ccc(-c2ncn(-c3ccc(OC(F)(F)F)cc3)n2)cc1)c1ccccc1 (stereo not drawn) [Compound 71] | A (50-100) | B (Less than 80) | A (50-100) |
| CC#CC(OC(=O)Nc1ccc(-c2ncn(-c3ccc(OC(F)(F)F)cc3)n2)cc1)c1ccccc1 (stereo not drawn) [Compound 72] | A (50-100) | B (Less than 80) | A (50-100) |
| CC(OC(=O)Nc1ccc(-c2ncn(-c3ccc(OC(F)(F)F)cc3)n2)cc1)c1c(Cl)cccc1Cl (stereo not drawn) [Compound 73] | A (50-100) | B (Less than 80) | A (50-100) |
| CCCC(OC(=O)Nc1ccc(-c2ncn(-c3ccc(OC(F)(F)F)cc3)n2)cc1)c1ccccc1 (stereo not drawn) [Compound 74] | A (50-100) | B (Less than 80) | A (50-100) |
| CC(OC(=O)Nc1ccc(-c2ncn(-c3ccc(OC(F)(F)F)cc3)n2)cc1)c1ccc(S(C)(=O)=O)cc1 (stereo not drawn) [Compound 75] | A (50-100) | B (Less than 80) | A (50-100) |
| CC(OC(=O)Nc1ccc(-c2ncn(-c3ccc(OC(F)(F)F)cc3)n2)cc1)c1cccs1 (stereo not drawn) [Compound 76] | A (50-100) | B (Less than 80) | A (50-100) |
| CC(OC(=O)Nc1ccc(-c2ncn(-c3ccc(OC(F)(F)F)cc3)n2)cc1)c1ccsc1 (stereo not drawn) [Compound 77] | A (50-100) | B (Less than 80) | A (50-100) |
| CC(C)CC(OC(=O)Nc1ccc(-c2ncn(-c3ccc(OC(F)(F)F)cc3)n2)cc1)c1ccccc1 (stereo not drawn) [Compound 78] | A (50-100) | B (Less than 80) | A (50-100) |
| CCC(OC(=O)Nc1ccc(-c2ncn(-c3ccc(OC(F)(F)F)cc3)n2)cc1)c1ccc(F)cc1 (stereo not drawn) [Compound 79] | A (50-100) | B (Less than 80) | A (50-100) |
| O=C(Nc1ccc(-c2ncn(-c3ccc(OC(F)(F)F)cc3)n2)cc1)OC(c1ccoc1)C(F)(F)F (stereo not drawn) [Compound 80] | A (50-100) | B (Less than 80) | A (50-100) |
